# Source: a melting point compilation (Tetko et al.; mined from patent text by program, amines drawn as free bases though some values may be those of a salt)
row,melting point [°C],Structure (SMILES)
1,208 to 209,O=C(O)c1cccc(Oc2ncccc2OCCCc2ccncc2)c1
2,122 to 123,Nc1ccccc1-c1cc[nH]n1
3,112 to 114,CC1(C)C2CC[C@]1(C)C(=O)C(C(=O)Nc1cc(Cl)cc(Cl)c1)C2=O (stereo partly specified)
4,116 to 118,C[C@H](Cc1ccc(O)c(O)c1)NC(=O)OC(C)(C)C
5,192,CC(=O)Nc1ccc(C(=O)CBr)cc1
6,72.5 to 81,COC(=O)c1cn(C)cn1
7,142 to 144,COc1ccc(N2CCN(c3c(C)c(C)c4c(c3C)CC(C)O4)CC2)c(OC)c1 (stereo unspecified)
8,138 to 139,CS(=O)(=O)c1ccc(C2=C(c3ccc(F)cc3)CCC2)cc1
9,64 to 67,COC(=O)CC(=O)c1cc(F)c(OC)c(F)c1
10,72 to 74,CCc1cccc(Nc2ncnc3cc(OCCOC)c(OCCOC)cc23)c1
11,116 to 118,C(=C(c1ccccc1)c1ccccc1)P(c1ccccc1)c1ccccc1
12,259 to 261,CCOC(=O)c1cc2c(cn1)[nH]c1ccc(N3CCCC3)cc12
13,72 to 74,CNC(=O)/C(=N/OC)c1ccccc1CCl
14,130 to 131,COc1cccc(C=O)c1Oc1ccc([N+](=O)[O-])cc1
15,268 to 270,CCC(=O)Nc1ccc(C2=NNC(=O)C3CC23)cc1 (stereo unspecified)
16,59,CN(C)C=Cc1ccc(OC(F)(F)F)cc1[N+](=O)[O-]
17,237 to 238,O=C1c2ccc(Cl)cc2C(=O)N1CC(=O)N1c2ccccc2N(Cc2ccccc2)C(=O)[C@H]2CCC[C@H]21 (relative stereo)
18,26 to 28,BrCCCCCCCCCCCCN1CCN(c2ccccc2)CC1
19,150 to 155,ON=C1CCc2cc(F)ccc21
20,213 to 217,N#Cc1ccc2ccn3cccc3c(=O)c2c1
21,99 to 101,CC(C)(C)c1ccc(CCCCN2CCC(C3(O)c4ccccc4CCc4ccccc43)CC2)cc1
22,118 to 119,CN1C(=O)Cc2cc(Cl)ccc21
23,158,N/C(=C1/Sc2ccccc2C1=O)c1ccc(F)cc1
24,183 to 185,NC(=O)c1c(Cl)c(-c2ccccc2)n2c1CN(S(=O)(=O)Nc1ccc(F)cc1)CC2

row,melting point [°C],Structure (SMILES)
1,260,Sc1nc2cc(C(c3ccccc3)n3ccnc3)ccc2[nH]1 (stereo unspecified)
2,208 to 209,Cc1nc2c(N)nc3ccccc3c2n1CCCNC(=O)C1CCCC1
3,202 to 204,COc1ccc(NC(=O)/C=C/c2cc(OC)c(OC)c(OC)c2)cc1N
4,198 to 200,COc1ccc(-c2cc3ccc(C)cc3s2)cc1
5,122 to 124,Nc1nc2c(c(N3CCN(CCc4ccccc4)CC3)n1)Cc1ccccc1-2
6,206 to 207,Cc1c(-c2ccncn2)nc2n(c1=O)CCCN2
7,157 to 159,CC(C)Oc1ccc2c(c1)N(C)C(=O)N(c1ccc(Cl)cc1)S2(=O)=O
8,136 to 138,C=C(c1cccc(-c2cnnn2COCC)c1F)C(O)(Cn1cncn1)c1ccc(F)cc1F (stereo unspecified)
9,188,CS(=O)(=O)c1ccc(-c2nn(Cc3ccccc3)c(=O)cc2-c2ccc(F)cc2)cc1
10,82 to 87,CC(C)(C)OC(=O)C(CN(Cc1ccccc1)Cc1ccccc1)CC1(C(=O)NC(Cc2ccc(OC(C)(C)C)cc2)C(=O)OC(C)(C)C)CCCC1 (stereo unspecified)
11,230 to 232,COc1ccc(C=Cc2nc3c(c(=O)n(C)c(=O)n3C)n2C)cc1OC
12,177 to 178,CCOC(=O)C1=C(C)NC(C)=C(C(=O)OCC)C1c1nc(-c2ccc(OC)cc2)c(-c2ccc(OC)cc2)s1
13,83 to 85,CC(=O)OCC1OC(n2cc(C(Br)=CBr)c(=O)[nH]c2=O)C(OC(C)=O)C1OC(C)=O (stereo unspecified)
14,84 to 88,CCCCN(C)Cc1c(-c2ccccc2)sc(N)c1C(=O)c1ccc(Cl)cc1
15,108 to 110,"CC(O)c1ccc(-c2ccc(C(=O)OCc3ccc(Cl)cc3)cc2)cc1 (single isomer, unassigned; (+))"
16,167 to 169,O=C(NCCn1ccnc1)c1cc2cc(Cl)ccc2[nH]1
17,99 to 100,CC(C)CCNc1nc2ccccc2cc1[N+](=O)[O-]
18,251 to 253,CNC(=O)Cc1c(-c2ccccc2)nc2n(C)c3ccc(C)cc3n12
19,173 to 174,O=C(c1cccnc1)N1CCN=C1Nc1c(Cl)cccc1Cl
20,172 to 173,CCOc1ccc(C(=O)N(C)C)c2c1C(=O)N(Cn1nnn(-c3ccccc3)c1=S)S2(=O)=O
21,139 to 140,CC(C)CN1C(=O)CCC(c2ccccc2Cl)c2ccccc21 (stereo unspecified)
22,63 to 67,S=C(NCCCCN(Cc1ccc(Cl)c(Cl)c1)c1ccc(Br)cn1)NCCCc1c[nH]cn1
23,63.5 to 64,NC(c1ccccc1)C12CC(CN1Cc1ccccc1)C2 (stereo unspecified)
24,154,COc1cc(-c2ccc(NN)nn2)ccc1OC(F)F

row,melting point [°C],Structure (SMILES)
1,85 to 95,CN(CCN1CCOCC1)c1ccc(OCC(=O)N[C@@H](CC(N)=O)C(=O)N[C@@H](Cc2ccccc2)[C@H](O)C(=O)N2CCC[C@H]2C(=O)NC(C)(C)C)cc1
2,82 to 85,O=CN1CC2CCCc3c(C(=O)CCCl)ccc1c32 (stereo unspecified)
3,166 to 168,O=S1(=O)CCC=C(O)c2cc(Cl)ccc21
4,127 to 131,Cn1cc(Oc2ccccc2)c(=S)c(-c2cccc(C(F)(F)F)c2)c1
5,200 to 203,CCOC(=O)c1cn(Cc2cnsn2)c2c(F)c(F)c(F)cc2c1=O
6,176 to 178,Nc1cnc(Br)c(N)n1
7,144 to 146,Cc1cc(=O)n2cccc(OCc3ccccc3Br)c2n1
8,92 to 93,CN(C(=O)OC(C)(C)C)c1cc(Oc2ccc(C(F)(F)F)cc2)ccc1[N+](=O)[O-]
9,173 to 176,CCc1ccc(-c2ccc3c(c2)C=C(C(=O)OC)CCS3(=O)=O)cc1
10,177 to 178,Cc1nc2ccc(F)cc2[nH]1
11,70 to 71,Nc1ccc(OCCCCCCCCCCOc2ccc(N)cc2)cc1
12,193 to 194,CC(C)(O)CCNC(=O)c1n[nH]cc1NC(=O)c1ccccn1
13,283 to 285,Cn1cc(O)c(=O)c2ccc(F)cc21
14,193,COc1cc(C(O)(C(F)(F)F)C(F)(F)F)cc(Br)c1N(S(C)(=O)=O)S(C)(=O)=O
15,95 to 98,Clc1cc(-c2ccccc2)ncn1
16,122 to 125,O=C(O)CC/C=C/c1nn(-c2ccccc2)c2c1CCC2
17,212 to 214,COc1ccc(C=C(NC(C)=O)C(=O)O)cc1OC
18,203 to 205,O=C(Nc1ccccc1)c1cn(-c2ccccc2)c2ccccc2c1=O
19,148,Cc1cc(-n2ccnc2)c2cccc(OCc3c(Cl)ccc(S(=O)(=O)N4CCC[C@H]4C(=O)NCCCNC(=O)c4ccc(C=NN)cc4)c3Cl)c2n1
20,148 to 150,CCOc1cccc(NC(=O)Nc2ccc3c(c2)CCN(C(=O)Nc2ccc(OCCO)cc2Cl)C3)c1
21,128 to 130,C[C@H]1O[C@@H](C(Cl)(Cl)Cl)OC(=O)[C@@H]1C
22,154 to 155,FC(F)(F)c1ccc(-c2ncc(-c3cccs3)s2)cc1
23,63 to 65,CC(C)(C)OC(=O)N1CCC=C(Cc2cn(S(=O)(=O)c3ccccc3)c3ccc(F)cc23)C1
24,59 to 62,Nc1cccnc1-c1ccccc1

row,melting point [°C],Structure (SMILES)
1,252 to 254,Cc1nn(-c2ccccn2)c(=O)cc1-c1ccc(O)cc1
2,235 to 238,O=C(O)c1ccc(C(c2ccc(C(=O)O)c([N+](=O)[O-])c2)(C(F)(F)F)C(F)(F)F)cc1[N+](=O)[O-]
3,148 to 150,CC(C)c1ccc2oc(C(O)COc3ccc(C(=O)O)cc3)cc2c1 (stereo unspecified)
4,241,Cc1ccc(S(=O)(=O)c2ccc(Cl)c(NC(=O)N[C@@H](Cc3ccc(NC(=O)c4c(Cl)cccc4Cl)cc3)C(=O)O)c2)cc1
5,248 to 249,CC(C)Cc1[nH]nc2c(N)nc3ccccc3c12
6,62 to 68,CCC(O)(C(=O)c1ccccc1)c1ccccc1 (stereo unspecified)
7,171 to 172,C=C(c1ccccc1)c1cccc(C(=NOCc2ccc(OCc3nc(-c4ccccc4)oc3C)cc2)C(=O)O)c1
8,145 to 146,CCCc1c(C(=O)NCc2ccc3cc(OCC(=O)OC)ccc3c2)cnn1-c1ccccc1
9,207 to 209,Cc1ccc(-c2nc(N3CCN(C)CC3)c3c(C)c(C#N)sc3n2)cc1
10,115 to 117,Nc1c(C2=CCCCC2)c(-c2ccccc2)nn1-c1ccccc1
11,170 to 171,CS(=O)(=O)c1ccc(-c2nn(CCc3ccccc3)cc2-c2ccc(F)cc2)cc1
12,179 to 182,CCOC(=O)N=C1NCC(Oc2ccc(C(Cc3cc4cc(C#N)ccc4s3)C(=O)OCC)cc2)CN1 (stereo unspecified)
13,160 to 161,CCOC(=O)C1=CCCCC1S(=O)(=O)Nn1cccc1-c1ccccc1 (stereo unspecified)
14,110 to 112,CCCCN(C(=O)C1CCCCC1)c1nn(C)cc1Cl
15,147 to 148,COC1=C(OC)C(=O)C(c2cc(C(C)(C)C)c(O)c(C(C)(C)C)c2)=C(C)C1=O
16,89 to 91,O=C(O)CCCOc1cccc(CCCCCCOc2ccc3c(c2CCCc2ccccc2)CCCC3=O)c1CCC(=O)O
17,115 to 116,CC(=O)Oc1ccc(CCc2ccc(OC(C)=O)cc2)cc1
18,198 to 200,Cc1c(F)c(N2CCNCC2)cc2c1c(=O)c(C(=O)O)cn2-c1ccc(F)cc1F
19,140 to 141,Nc1ccc(CCC(=O)N2CCCCC2)cc1[N+](=O)[O-]
20,91 to 93,N#CC(CC(=O)c1ccc(C(F)(F)F)cc1)C1CC1 (stereo unspecified)
21,259 to 261,CCCCNc1ccc2n[nH]c(=O)n2n1
22,166,COc1ccccc1CNc1ccc2cc(Nc3ncc(C(F)(F)F)o3)ccc2n1
23,78 to 79,COC(=O)c1cnc(Cl)c(Br)c1

row,Structure (SMILES),melting point [°C]
1,COC1Nc2c(ccc(C)c2OC(C)=O)C(=O)N2CCCC12 (stereo unspecified),147 to 150
2,Oc1cccc(C2CCCN(CCCc3ccccc3)C2)c1 (stereo unspecified),119 to 120
3,CCOC1CCC2C3CCC4=CC(=O)CCC4=C3C(c3ccc(C=O)cc3)CC12C (stereo unspecified),149 to 152
4,CNS(=O)(=O)Cc1ccc2[nH]cc(CCN)c2c1,179 to 181
5,CCN(CC)CC#CCNC(=O)C(O)(c1ccccc1)C1CCCCC1 (stereo unspecified),102 to 104
6,O=C1CNC(=O)N1c1ccc([N+](=O)[O-])cc1,250 to 251
